According to patent publication US10202339B2, “Therapeutic compounds and compositions” (AGIOS PHARMACEUTICALS, INC., priority 2012, dated 2019):

Biological target: IDH1 R132H (Homo sapiens (Human), UniProt O75874, R132H)
Experiment: In vitro assay for IDH1m (R132H) inhibitors, NADPH depletion with resazurin/resorufin detection
Assay type: biochemical
Conditions: IDH1 R132H enzyme, 50 minutes at room temperature; read-out: IDH R132H IC50
Protocol: Assays were conducted in a volume of 76 μl assay buffer (150 mM NaCl, 10 mM MgCl2, 20 mM Tris pH 7.5, 0.03% bovine serum albumin) as follows in a standard 384-well plate: To 25 ul of substrate mix (8 uM NADPH, 2 mM aKG), 1 μl of test compound was added in DMSO. The plate was centrifuged briefly, and then 25 μl of enzyme mix was added (0.2 μg/ml IDH1 R132H) followed by a brief centrifugation and shake at 100 RPM. The reaction was incubated for 50 minutes at room temperature, then 25 μl of detection mix (30 μM resazurin, […]) was added and the mixture further incubated for 5 minutes at room temperature. The conversion of resazurin to resorufin was detected by fluorescent spectroscopy at Ex544 Em590 c/o 590.
Representative compounds of formula (I) set forth in Tables 1 and 2 were tested in this assay and the results are set forth below in Table 4.

Sequence of IDH1 R132H (O75874 whole entry R132H): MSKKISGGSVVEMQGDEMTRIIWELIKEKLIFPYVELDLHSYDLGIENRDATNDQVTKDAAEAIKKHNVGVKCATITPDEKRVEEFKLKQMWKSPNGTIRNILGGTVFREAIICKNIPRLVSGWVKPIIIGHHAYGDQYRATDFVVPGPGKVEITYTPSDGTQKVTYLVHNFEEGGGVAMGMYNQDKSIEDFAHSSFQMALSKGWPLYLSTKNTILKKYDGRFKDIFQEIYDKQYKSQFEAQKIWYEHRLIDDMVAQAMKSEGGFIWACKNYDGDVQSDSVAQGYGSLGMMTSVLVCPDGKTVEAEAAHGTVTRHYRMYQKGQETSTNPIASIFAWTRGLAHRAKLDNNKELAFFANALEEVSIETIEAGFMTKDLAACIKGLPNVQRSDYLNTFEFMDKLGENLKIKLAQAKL

Row | Compound | IC50
1 | CCc1cccc(CC)c1NC(=O)Nc1ccc(C)c(S(=O)(=O)Nc2ccc(Cl)cc2)c1 [Compound 261] | 1 to 10 µM
2 | Cc1ccc(NC(=O)Nc2ccc(C(F)(F)F)cc2)cc1S(=O)(=O)Nc1cccc(CCc2ccccc2)c1 [Compound 332] | 1 to 10 µM
3 | CC(=O)n1ccc2cc(NS(=O)(=O)c3cc(NC(=O)Nc4cccc(C(F)(F)F)c4)ccc3C)ccc21 [Compound 318] | 1 to 10 µM
4 | CCOC(=O)CNc1ccc(NS(=O)(=O)c2cc(NC(=O)Nc3ccc(C(F)(F)F)cc3)ccc2C)cc1 [Compound 330] | 1 to 10 µM
5 | Cc1ccc(NC(=O)Nc2cccc(C(F)(F)F)c2)cc1S(=O)(=O)Nc1cccc(O)c1 [compound 303] | 1 to 10 µM
6 | Cc1ccc(NC(=O)Nc2cccc(C(F)(F)F)c2)cc1S(=O)(=O)Nc1ccc(S(C)(=O)=O)cc1 [Compound 313] | 1 to 10 µM
7 | Cc1ccc(NC(=O)Nc2ccc(Br)cc2OC(F)(F)F)cc1S(=O)(=O)Nc1ccc(Cl)cc1 [Compound 232] | 1 to 10 µM
8 | Cc1ccc(NC(=O)N[C@H](C)c2ccccc2)cc1S(=O)(=O)Nc1ccc(Cl)cc1 [Compound 284] | 1 to 10 µM
9 | CCOC(=O)COc1ccc(NS(=O)(=O)c2cc(NC(=O)Nc3ccc(C(F)(F)F)cc3)ccc2C)cc1 [Compound 325] | 1 to 10 µM
10 | Cc1ccc(NC(=O)Nc2ccccc2Br)cc1S(=O)(=O)Nc1ccc(Cl)cc1 [Compound 216] | 1 to 10 µM
11 | CCCCc1ccc(NC(=O)Nc2ccc(C)c(S(=O)(=O)Nc3ccc(Cl)cc3)c2)cc1 [Compound 253] | 1 to 10 µM
12 | Cc1ccc(F)c(NC(=O)Nc2ccc(C)c(S(=O)(=O)Nc3ccc(Cl)cc3)c2)c1 [Compound 240] | 1 to 10 µM
13 | Cc1ccc(NC(=O)Nc2ccccc2OC(F)(F)F)cc1S(=O)(=O)Nc1ccc(Cl)cc1 [Compound 224] | 1 to 10 µM
14 | Cc1ccc(NC(=O)Nc2ccc(OC(F)(F)F)cc2)cc1S(=O)(=O)Nc1ccccc1 [Compound 208] | 1 to 10 µM
15 | Cc1ccc(NC(=O)Nc2cccc(C(F)(F)F)c2)cc1S(=O)(=O)Nc1ccc2c(c1)OCCO2 [Compound 315, N-(2,3-dihydrobenzo[b][1,4]dioxin-6-yl)-2-methyl-5-(3-(3(trifluoromethyl)phenyl)ureido)benzenesulfonamide] | 1 to 10 µM
16 | Cc1ccc(NC(=O)Nc2ccccc2C(C)(C)C)cc1S(=O)(=O)Nc1ccc(Cl)cc1 [Compound 255] | 1 to 10 µM
17 | Cc1ccc(NC(=O)Nc2c(-c3ccccc3)noc2C)cc1S(=O)(=O)Nc1ccc(Cl)cc1 [Compound 290] | 1 to 10 µM
18 | Cc1cccc(NS(=O)(=O)c2cc(NC(=O)Nc3cccc(C(F)(F)F)c3)ccc2C)c1 [Compound 302] | 1 to 10 µM
19 | Cc1ccc(NC(=O)Nc2ccc3ccccc3c2)cc1S(=O)(=O)Nc1ccc(Cl)cc1 [Compound 287] | 1 to 10 µM
20 | Cc1ccc(NC(=O)Nc2cccc(C(F)(F)F)c2)cc1S(=O)(=O)Nc1cccc(CCc2ccccc2)c1 [Compound 314] | 1 to 10 µM
21 | Cc1ccc(NC(=O)Nc2cccc(C(F)(F)F)c2)cc1S(=O)(=O)Nc1ccc2c(c1)ncn2C [Compound 320, 2-methyl-N-(1-methyl-1H-benzo[d]imidazol-5-yl)-5-(3-(3-(trifluoromethyl)phenyl)ureido)benzene sulfonamide] | 1 to 10 µM
22 | Cc1ccc(CNC(=O)Nc2ccc(C)c(S(=O)(=O)Nc3ccc(Cl)cc3)c2)cc1 [Compound 283] | 1 to 10 µM
23 | Cc1cc(Br)ccc1NC(=O)Nc1ccc(C)c(S(=O)(=O)Nc2ccc(Cl)cc2)c1 [Compound 238] | 1 to 10 µM
24 | Cc1ccc(NC(=O)Nc2cccc(Oc3ccccc3)c2)cc1S(=O)(=O)Nc1ccccc1 [Compound 212] | 1 to 10 µM
25 | N-(1H-indol-7-yl)-2-methyl-5-(3-(3-(trifluoromethyl)phenyl)ureido)benzenesulfonamide [Compound 317] | 1 to 10 µM
26 | Cc1ccc(NC(=O)NCc2ccccc2F)cc1S(=O)(=O)Nc1ccc(Cl)cc1 [Compound 278] | 1 to 10 µM
27 | Cc1ccc(NC(=O)Nc2cccc(C)c2C)cc1S(=O)(=O)Nc1ccc(Cl)cc1 [Compound 258] | 1 to 10 µM
